Values of other authors as cited in US20140235552A1 (priority 2013, published 2014).
No end group written: not given here.

Tests used:
[1] = system: gastrin levels; settings: 90 mg/day for 6 years or greater; cited from earlier work
[2] = system: patients with type 2 diabetes; settings: 12 weeks, cited from earlier work
[3] = system: beta cell mass; settings: after infusion in rats; cited from earlier work
[4] = system: human pancreatic ductal tissue; settings: in vitro, without epidermal growth factor; cited from earlier work

In the case of `Cc1c(OCC(F)(F)F)ccnc1C[S+]([O-])c1nc2ccccc2[nH]1` (stereo not shown) [Lansoprazole, 1H-Benzimidazole,2-[[[3-methyl-4-(2,2,2-trifluoroethoxy)-2-pyridinyl]methyl]sulfinyl]-2-[[[3-Methyl-4-(2,2,2-trifluoroethoxy)-2-pyridyl]-methyl]sulfinyl]benzimidazole], the “gastrin levels relative to normal” value [1] is given as roughly 7 fold and the safety profile [1] is given as “sustained safety profile”.

For `COc1ccc2nc([S@@+]([O-])Cc3ncc(C)c(OC)c3C)[nH]c2c1` [esomeprazole], the “increase in area under the curve (AUC) of gastrin” value ([2]; 20 type 2 diabetes patients, 40 mg) is listed as 9 fold, the “insulin secretion, glycaemic control or cardiovascular disease biomarkers” value ([2]; type 2 diabetes, authors' conclusion) is listed as “did not improve” and the “change in insulin AUC” value ([2]; type 2 diabetes, inventor's reading of the published data) is listed as “no decline”.

In the case of “gastrin: gastrointestinal hormone demonstrated to result in new beta cell formation (QGPWLEEEEEAYGWMDF; ends and bridges not checked; UniProt P01350 76-92, looked up)”, the beta cell mass [3] is given as “doubling” and the “beta cell neogenesis from human pancreatic ductal tissue” value [4] is given as “induce beta cell neogenesis”.
